Results taken from PubChem BioAssay (NCI).
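Assay format: 96-well plates, 48-hour exposure. Abbreviation: GI50, concentration required for 50% inhibition of growth. TGI: concentration producing complete growth inhibition.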

What was measured:
Assay in all cases: inhibition of tumour cell growth, NCI panel, 48 h
A498 renal = system: A498 renal
NCI/ADR-RES ovarian = system: NCI/ADR-RES ovarian
IGROV1 ovarian = system: IGROV1 ovarian
HCC-2998 colon = system: HCC-2998 colon
SK-MEL-2 melanoma = system: SK-MEL-2 melanoma
EKVX NSCLC = system: EKVX NSCLC
SK-OV-3 ovarian = system: SK-OV-3 ovarian
SK-MEL-28 melanoma = system: SK-MEL-28 melanoma
SK-MEL-5 melanoma = system: SK-MEL-5 melanoma
NCI-H23 lung = system: NCI-H23 lung
KM12 colon = system: KM12 colon
SNB-75 CNS = system: SNB-75 CNS
HT29 colon = system: HT29 colon
MDA-MB-435 = system: MDA-MB-435
786-0 renal = system: 786-0 renal
SW-620 colon = system: SW-620 colon
HS 578T breast = system: HS 578T breast
MOLT-4 leukemia = system: MOLT-4 leukemia
HCT-15 colon = system: HCT-15 colon
BT-549 breast = system: BT-549 breast
RXF 393 renal = system: RXF 393 renal
ACHN renal = system: ACHN renal
SF-268 CNS = system: SF-268 CNS
SN12C renal = system: SN12C renal
UO-31 renal = system: UO-31 renal
OVCAR-5 ovarian = system: OVCAR-5 ovarian
T-47D breast = system: T-47D breast
TK-10 renal = system: TK-10 renal
SNB-19 CNS = system: SNB-19 CNS
CCRF-CEM leukemia = system: CCRF-CEM leukemia
HCT-116 colon = system: HCT-116 colon
UACC-257 melanoma = system: UACC-257 melanoma
RPMI-8226 leukemia = system: RPMI-8226 leukemia
UACC-62 melanoma = system: UACC-62 melanoma
K-562 leukemia = system: K-562 leukemia
MDA-MB-231 breast = system: MDA-MB-231 breast
HOP-62 NSCLC = system: HOP-62 NSCLC
DU-145 prostate = system: DU-145 prostate
SR leukemia = system: SR leukemia
A549 NSCLC = system: A549 NSCLC
OVCAR-8 ovarian = system: OVCAR-8 ovarian
SF-539 CNS = system: SF-539 CNS
CAKI-1 renal = system: CAKI-1 renal
NCI-H460 lung = system: NCI-H460 lung
HL-60(TB) leukemia = system: HL-60(TB) leukemia
NCI-H522 lung = system: NCI-H522 lung
OVCAR-3 ovarian = system: OVCAR-3 ovarian
U251 CNS = system: U251 CNS
LOX IMVI melanoma = system: LOX IMVI melanoma
PC-3 prostate = system: PC-3 prostate
OVCAR-4 ovarian = system: OVCAR-4 ovarian
MCF7 breast = system: MCF7 breast
NCI-H226 lung = system: NCI-H226 lung
MALME-3M melanoma = system: MALME-3M melanoma
M14 melanoma = system: M14 melanoma
HOP-92 NSCLC = system: HOP-92 NSCLC
COLO 205 colon = system: COLO 205 colon
SF-295 CNS = system: SF-295 CNS

## Nc1ncn([C@@H]2S[C@H](CO)[C@@H](O)[C@@H]2F)c(=O)n1
A498 renal
  GI50: 267 nM
NCI/ADR-RES ovarian
  GI50: 285 nM
  TGI: > 100000 nM
IGROV1 ovarian
  GI50: 3430 nM
  TGI: > 100000 nM
HCC-2998 colon
  GI50: 1840 nM
  TGI: > 100000 nM
SK-MEL-2 melanoma
  GI50: > 100000 nM
  TGI: > 100000 nM
EKVX NSCLC
  GI50: 8970 nM
  TGI: > 100000 nM
SK-OV-3 ovarian
  GI50: 2940 nM
  TGI: > 100000 nM
SK-MEL-28 melanoma
  GI50: > 100000 nM
  TGI: > 100000 nM
SK-MEL-5 melanoma
  GI50: 827 nM
  TGI: > 100000 nM
NCI-H23 lung
  GI50: 347 nM
  TGI: > 100000 nM
KM12 colon
  GI50: 21400 nM
  TGI: > 100000 nM
SNB-75 CNS
  GI50: 43400 nM
  TGI: > 100000 nM
HT29 colon
  GI50: 2450 nM
  TGI: > 100000 nM
MDA-MB-435
  GI50: 692 nM
  TGI: > 100000 nM
786-0 renal
  GI50: 337 nM
  TGI: > 100000 nM
SW-620 colon
  GI50: 1380 nM
  TGI: > 100000 nM
HS 578T breast
  GI50: > 100000 nM
  TGI: > 100000 nM
MOLT-4 leukemia
  GI50: 172 nM
  TGI: > 100000 nM
HCT-15 colon
  GI50: 2700 nM
  TGI: > 100000 nM
BT-549 breast
  GI50: 54700 nM
  TGI: > 100000 nM
RXF 393 renal
  GI50: 7310 nM
  TGI: > 100000 nM
ACHN renal
  GI50: 297 nM
SF-268 CNS
  GI50: 4280 nM
  TGI: > 100000 nM
SN12C renal
  GI50: 364 nM
  TGI: > 100000 nM
UO-31 renal
  GI50: 372 nM
  TGI: > 100000 nM
OVCAR-5 ovarian
  GI50: 2640 nM
  TGI: > 100000 nM
T-47D breast
  GI50: > 100000 nM
  TGI: > 100000 nM
TK-10 renal
  GI50: > 100000 nM
  TGI: > 100000 nM
SNB-19 CNS
  GI50: 662 nM
  TGI: > 100000 nM
CCRF-CEM leukemia
  GI50: 39.9 nM
  TGI: > 100000 nM
HCT-116 colon
  GI50: 265 nM
  TGI: > 100000 nM
UACC-257 melanoma
  GI50: > 71400 nM
  TGI: > 100000 nM
RPMI-8226 leukemia
  GI50: 22400 nM
  TGI: > 100000 nM
UACC-62 melanoma
  GI50: 5010 nM
  TGI: > 100000 nM
K-562 leukemia
  GI50: 1810 nM
  TGI: > 100000 nM
MDA-MB-231 breast
  GI50: > 100000 nM
  TGI: > 100000 nM
HOP-62 NSCLC
  GI50: 951 nM
  TGI: > 100000 nM
DU-145 prostate
  GI50: 508 nM
  TGI: > 100000 nM
SR leukemia
  GI50: 648 nM
  TGI: > 100000 nM
A549 NSCLC
  GI50: 512 nM
  TGI: > 100000 nM
OVCAR-8 ovarian
  GI50: 409 nM
  TGI: > 100000 nM
SF-539 CNS
  GI50: 9800 nM
  TGI: > 77900 nM
CAKI-1 renal
  GI50: 322 nM
  TGI: > 100000 nM
NCI-H460 lung
  GI50: 442 nM
  TGI: > 100000 nM
HL-60(TB) leukemia
  GI50: 571 nM
  TGI: > 31500 nM
NCI-H522 lung
  GI50: > 100000 nM
  TGI: > 100000 nM
OVCAR-3 ovarian
  GI50: > 74000 nM
  TGI: > 100000 nM
U251 CNS
  GI50: 13900 nM
  TGI: > 100000 nM
LOX IMVI melanoma
  GI50: 1160 nM
  TGI: > 100000 nM
PC-3 prostate
  TGI: > 100000 nM
OVCAR-4 ovarian
  GI50: > 100000 nM
  TGI: > 100000 nM
MCF7 breast
  GI50: 279 nM
  TGI: > 100000 nM
NCI-H226 lung
  GI50: 9990 nM
  TGI: > 100000 nM
MALME-3M melanoma
  GI50: 5130 nM
  TGI: > 100000 nM
M14 melanoma
  GI50: 377 nM
  TGI: 30100 nM
HOP-92 NSCLC
  GI50: 623 nM
  TGI: > 100000 nM
COLO 205 colon
  GI50: 3570 nM
  TGI: > 100000 nM
SF-295 CNS
  GI50: 17700 nM
  TGI: > 100000 nM

## O=C(c1ccc2ccccc2c1)c1c(C(F)(F)F)n([O-])c2ccc(C(F)(F)F)cc2[n+]1=O
A498 renal
  GI50: 757 nM
  TGI: 1970 nM
NCI/ADR-RES ovarian
  GI50: 1700 nM
  TGI: 4750 nM
IGROV1 ovarian
  GI50: 270 nM
  TGI: 815 nM
HCC-2998 colon
  GI50: 1690 nM
  TGI: 3270 nM
SK-MEL-2 melanoma
  GI50: 1960 nM
  TGI: 3770 nM
EKVX NSCLC
  GI50: 1540 nM
  TGI: 3200 nM
SK-OV-3 ovarian
  GI50: 1790 nM
  TGI: 3200 nM
SK-MEL-28 melanoma
  GI50: 1480 nM
  TGI: 2860 nM
SK-MEL-5 melanoma
  GI50: 927 nM
  TGI: 2370 nM
NCI-H23 lung
  GI50: 3400 nM
  TGI: 10200 nM
KM12 colon
  GI50: 961 nM
  TGI: 2390 nM
SNB-75 CNS
  GI50: 640 nM
  TGI: 1480 nM
HT29 colon
  GI50: 439 nM
  TGI: 1430 nM
MDA-MB-435
  GI50: 1750 nM
  TGI: 3350 nM
786-0 renal
  GI50: 1290 nM
  TGI: 2680 nM
SW-620 colon
  GI50: 514 nM
  TGI: 1110 nM
HS 578T breast
  GI50: 1440 nM
  TGI: 3970 nM
MOLT-4 leukemia
  GI50: 441 nM
  TGI: 1620 nM
HCT-15 colon
  GI50: 732 nM
  TGI: 2070 nM
BT-549 breast
  GI50: 278 nM
  TGI: 751 nM
RXF 393 renal
  GI50: 974 nM
  TGI: 2540 nM
ACHN renal
  GI50: 566 nM
  TGI: 1710 nM
SF-268 CNS
  GI50: 783 nM
  TGI: 2370 nM
SN12C renal
  GI50: 1390 nM
  TGI: 3300 nM
UO-31 renal
  GI50: 434 nM
  TGI: 874 nM
OVCAR-5 ovarian
  GI50: 992 nM
  TGI: 4200 nM
T-47D breast
  GI50: 755 nM
  TGI: 2310 nM
TK-10 renal
  GI50: 1670 nM
  TGI: 3070 nM
SNB-19 CNS
  GI50: 1760 nM
  TGI: 3200 nM
CCRF-CEM leukemia
  GI50: 181 nM
  TGI: 547 nM
HCT-116 colon
  GI50: 498 nM
  TGI: 1160 nM
UACC-257 melanoma
  GI50: 1520 nM
  TGI: 3120 nM
RPMI-8226 leukemia
  GI50: 864 nM
  TGI: 2880 nM
UACC-62 melanoma
  GI50: 1720 nM
  TGI: 3210 nM
K-562 leukemia
  GI50: 608 nM
  TGI: 1140 nM
MDA-MB-231 breast
  GI50: 1480 nM
  TGI: 2950 nM
HOP-62 NSCLC
  GI50: 1950 nM
  TGI: 3580 nM
DU-145 prostate
  GI50: 738 nM
  TGI: 2000 nM
SR leukemia
  GI50: 174 nM
  TGI: 478 nM
A549 NSCLC
  GI50: 1680 nM
  TGI: 3480 nM
OVCAR-8 ovarian
  GI50: 727 nM
  TGI: 2450 nM
SF-539 CNS
  GI50: 1560 nM
  TGI: 2970 nM
CAKI-1 renal
  GI50: 280 nM
  TGI: 730 nM
NCI-H460 lung
  GI50: 1800 nM
  TGI: 3690 nM
HL-60(TB) leukemia
  GI50: 639 nM
  TGI: 2200 nM
NCI-H522 lung
  GI50: 505 nM
  TGI: 1090 nM
OVCAR-3 ovarian
  GI50: 884 nM
  TGI: 2260 nM
U251 CNS
  GI50: 302 nM
  TGI: 742 nM
LOX IMVI melanoma
  GI50: 191 nM
  TGI: 363 nM
PC-3 prostate
  GI50: 407 nM
  TGI: 1420 nM
OVCAR-4 ovarian
  GI50: 249 nM
  TGI: 607 nM
MCF7 breast
  GI50: 392 nM
  TGI: 1560 nM
NCI-H226 lung
  GI50: 1060 nM
  TGI: 3350 nM
MALME-3M melanoma
  GI50: 1200 nM
  TGI: 2710 nM
M14 melanoma
  GI50: 1540 nM
  TGI: 2950 nM
HOP-92 NSCLC
  GI50: 899 nM
  TGI: 2280 nM
COLO 205 colon
  GI50: 724 nM
  TGI: 1830 nM
SF-295 CNS
  GI50: 1290 nM
  TGI: 2740 nM
